These results are taken from US20150352108A1, “AMINO-PYRIMIDINE COMPOUNDS AS INHIBITORS OF TBK1 AND/OR IKK EPSILON” (Alzheimer's Institute of America, priority 2009, published 2015).

This assay deals with T1, IKKε (Homo sapiens, UniProt Q14164).
T1 construct: His-tag; made in house; host or cells: Sf9 insect cells
T1 sequence (Q14164 1-716): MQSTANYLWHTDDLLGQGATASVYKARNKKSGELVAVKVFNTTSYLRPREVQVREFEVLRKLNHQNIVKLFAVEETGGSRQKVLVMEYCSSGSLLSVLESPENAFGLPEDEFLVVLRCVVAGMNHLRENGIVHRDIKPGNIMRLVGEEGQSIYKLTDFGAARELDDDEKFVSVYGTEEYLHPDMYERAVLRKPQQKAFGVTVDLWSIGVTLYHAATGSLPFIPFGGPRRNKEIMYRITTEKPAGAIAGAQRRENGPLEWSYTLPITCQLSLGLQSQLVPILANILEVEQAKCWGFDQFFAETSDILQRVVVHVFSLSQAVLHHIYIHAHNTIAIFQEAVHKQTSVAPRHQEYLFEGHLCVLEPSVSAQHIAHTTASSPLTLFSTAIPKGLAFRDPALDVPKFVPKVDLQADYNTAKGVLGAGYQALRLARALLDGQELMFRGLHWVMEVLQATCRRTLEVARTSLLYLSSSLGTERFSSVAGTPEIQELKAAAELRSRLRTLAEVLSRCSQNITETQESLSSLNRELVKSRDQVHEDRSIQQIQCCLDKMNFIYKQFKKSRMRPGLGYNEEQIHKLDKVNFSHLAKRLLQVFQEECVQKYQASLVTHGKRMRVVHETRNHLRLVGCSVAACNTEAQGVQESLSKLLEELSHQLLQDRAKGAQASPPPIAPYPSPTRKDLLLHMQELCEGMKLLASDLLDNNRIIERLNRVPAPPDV
As to the kind of experiment: In-vitro IKKε kinase assay ([γ33]ATP filter-plate). It counts as biochemical. Particulars: text bins; read-out: IC50 for inhibition of the kinase activity of IKKε. The method, then: IKKε enzyme was produced as a His-tag fusion in Sf9 cells and used at a final concentration of […]. TBK1 enzyme was produced as a His-tag fusion in Sf9 cells and used at a final concentration of 0.1 μg/ml. Kinase reactions were carried out in reaction buffer using myelin basic protein (Millipore, Ballerica, Mass.) or casein (Sigma, St. Louis, Mo.) as substrate at an ATP concentration equal to twice the Km,ATP value for each enzyme, corresponding to 32 μM ATP for IKKε and 60 μM ATP for TBK1, in the presence of 0.3 μCi [γ^33]ATP (PerkinElmer, Waltham, Mass.). Final enzyme concentrations were 0.1 or 0.015 μg/ml (IKKε) and 0.1 or 0.02 μg/ml (TBK1), representing “normal” and “sensitized” assay conditions respectively. Test compounds (or DMSO solvent as a control) were added prior to initiation of the reactions. Reactions were terminated after 30-45 minutes by adding 3% phosphoric acid. Terminated reactions were transferred to P-81 cellulose phosphate filterplates (Whatman, Inc., Piscataway, N.J.) and washed with 1% phosphoric acid on a vacuum apparatus. After air drying, scintillant (PerkinElmer, Waltham, Mass.) was added and the plates were read on a PerkinElmer TopCount NXT instrument. Counts were normalized to DMSO controls after background subtraction.

pIC50: −log10 of the molar value. Bounds are passed on as bounds.

As to `N#Cc1cc(-c2ccnc(Nc3ccc(N4CCOCC4)cc3)n2)ccc1NC(=O)NC1CCC(O)CC1` (centres unmarked) [Example 46, 1-[2-cyano-4-(2-{[4-(morpholin-4-yl)phenyl]amino}pyrimidin-4-yl)phenyl]-3-(4-hydroxycyclohexyl) urea], the pIC50 is 6.30 to 7.30. Consider `CC(C)C(=O)Nc1ccc(-c2ccnc(Nc3ccc(OCCCN4CCOCC4)cc3)n2)cc1C#N` [compound 430, N-{2-cyano-4-[2-({4-[3-(morpholin-4-yl)propoxy]phenyl}amino)pyrimidin-4-yl]phenyl}-2-methylpropanamide], for which the pIC50 is 7.30 to 8.30.

Regarding `N#Cc1cccc(-c2ccnc(Nc3ccc4c(c3)OCCO4)n2)c1` [Example 232, 3-[2-(2,3-Dihydro-1,4-benzodioxin-6-ylamino)pyrimidin-4-yl]benzonitrile], the pIC50 was 6.30 to 7.30. For `CC(=O)OC(C)C(=O)Nc1ccc(-c2ccnc(Nc3ccc(N4CCOCC4)cc3)n2)cc1C#N` (centres unmarked) [Example 147, 1-{[2-cyano-4-(2-{[4-(morpholin-4-yl)phenyl]amino}pyrimidin-4-yl)phenyl]amino}-1-oxopropan-2-yl acetate], the pIC50 was 6.30 to 7.30.

Consider `CCNS(=O)(=O)c1ccc(Nc2nccc(-c3ccc(NC(=O)C(C)C)c(C#N)c3)n2)cc1` [compound 449, N-[2-cyano-4-(2-{[4-(ethylsulfamoyl)phenyl]amino}pyrimidin-4-yl)phenyl]-2-methylpropanamide], for which the pIC50 was 7.30 to 8.30. For `COc1ccc(Nc2nccc(-c3cccc(C#N)c3)n2)cc1F` [Example 66, 3-{2-[(3-Fluoro-4-methoxyphenyl)amino]pyrimidin-4-yl}benzonitrile] the value was 6.30 to 7.30; for `N#Cc1cc(-c2ccnc(Nc3ccc(-c4cccnc4)cc3)n2)ccc1OC1CCOCC1` [compound 550, 5-(2-{[4-(Pyridin-3-yl)phenyl]amino}pyrimidin-4-yl)-2-(tetrahydro-2H-pyran-4-yloxy)benzonitrile], greater than 8.30; for `COc1ccc(-c2ccnc(Nc3cccc(NC(=O)NC4CCCC4)c3)n2)cc1C#N` [compound 348, 1-(3-{[4-(3-Cyano-4-methoxyphenyl)pyrimidin-2-yl]amino}phenyl)-3-cyclopentylurea], 6.30 to 7.30. As to `N#Cc1cc(-c2ccnc(Nc3ccc(N4CCOCC4)cc3)n2)ccc1OC1CCN(C(=O)[C@@H](O)C(F)(F)F)CC1` [Example 113, 5-(2-{[4-(morpholin-4-yl)phenyl]amino}pyrimidin-4-yl)-2-({1-[(2R)-3,3,3-trifluoro-2-hydroxypropanoyl]piperidin-4-yl}oxy)benzonitrile], the pIC50 is 7.30 to 8.30. For `N#Cc1cc(-c2ccnc(Nc3ccc(N4CCOCC4)cc3)n2)ccc1NC(=O)c1cccnc1` [Example 204, N-[2-cyano-4-(2-{[4-(morpholin-4-yl)phenyl]amino}pyrimidin-4-yl)phenyl]pyridine-3-carboxamide] the value was 6.30 to 7.30.

As to `N#Cc1cc(-c2ccnc(Nc3ccc(N4CCOCC4)cc3)n2)ccc1NC(=O)Cc1ccccc1` [compound 435, N-[2-cyano-4-(2-{[4-(morpholin-4-yl)phenyl]amino}pyrimidin-4-yl)phenyl]-2-phenylacetamide], the pIC50 is 6.30 to 7.30. As to `CC(C)NC(=O)NCCOc1ccc(-c2ccnc(Nc3ccc(N4CCOCC4)cc3)n2)cc1C#N` [Example 47, 1-{2-[2-cyano-4-(2-{[4-(morpholin-4-yl)phenyl]amino}pyrimidin-4-yl)phenoxy]ethyl}-3-propan-2-ylurea], the pIC50 is 7.30 to 8.30.

Take `CC(C)(N)C(=O)N1CCC(COc2ccc(-c3ccnc(Nc4ccc(N5CCOCC5)cc4)n3)cc2C#N)CC1` [Example 255, 2-{[1-(2-methylalanyl)piperidin-4-yl]methoxy}-5-(2-{[4-(morpholin-4-yl)phenyl]amino}pyrimidin-4-yl)benzonitrile]: the pIC50 was 6.30 to 7.30. `N#Cc1cc(-c2ccnc(Nc3cccc(S(N)(=O)=O)c3)n2)ccc1OC1CCOCC1` [Example 146, 3-({4-[3-cyano-4-(tetrahydro-2H-pyran-4-yloxy)phenyl]pyrimidin-2-yl}amino) benzenesulfonamide]: the pIC50 was 7.30 to 8.30.

For orientation: pIC50 means the IC50 on a negative log10 scale, so that one unit is a factor of ten.
